This passage reports inhibition and IL-1β % inhibition results from patent US7297700B2, “Bicycloheteroaryl compounds as P2X7 modulators and uses thereof” (Renovis, Inc., priority 2005, dated 2007).

The test system of one assay is IL-1β release from THP-1 cells. The experiment in a line: IL-1β Release Assay (Alternate Method), THP-1 cells. In kind it is cell-based, human. Particulars: Homo sapiens; at 0.3 μM; THP-1 cells, BzATP-stimulated; read-out: IL-1β % inhibition. In a few lines:
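IL-1β release, measured by ELISA, follows 45 min BzATP (250 uM final) stimulation of THP-1 cells given 30 min compound pretreatment. Cells were first primed 16 h with LPS and IFN-γ (100 ng/mL each), then 2 h with fresh LPS; inhibition expressed in percent after background correction.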
Broadly, the inhibition is the share of the control response that was lost under treatment. For the compound `O=C(CC12CC3CC(CC(C3)C1)C2)Nc1cccc2c1C=CN(Cc1ccc(F)cc1)C2` [Compound 636], the inhibition at 0.3 µM is 0 to 25%.

Staying with this assay, now noted: Homo sapiens; at 0.3 μM; THP-1 cells; read-out: IL-1β % inhibition.
On to `O=C(CC12CC3CC(CC(C3)C1)C2)Nc1ccnc2c1CCN(Cc1ccccc1)C2` [Compound 342, 2-Adamantan-1-yl-N-(7-benzyl-5,6,7,8-tetrahydro-[1,7]naphthyridin-4-yl)-acetamide], for which the inhibition at 0.3 µM fell in the range of 0 to 25%.

The assay is the same for the next values; noted with them: at 0.3 μM; THP-1 cells.
For `Cc1ccc(S(=O)(=O)N2CCc3c(ncnc3NC(=O)CC34CC5CC(CC(C5)C3)C4)C2)cc1Cl` [Compound 207], the IL-1β % inhibition result is on record as “+++ (compound exhibited 50-75% inhibition at 0.3 μM)”. Still for that read-out and setting: to `O=C(NCCc1ccccc1Cl)c1ncnc2c1CCN(Cc1ccccc1)C2` [Compound 1] belongs “+ (compound exhibited 0-25% inhibition at 0.3 μM)”.

Take `COc1ccc(S(=O)(=O)N2CCc3c(ncnc3NC(=O)CC34CC5CC(CC(C5)C3)C4)C2)cc1` [Compound 149]: the IL-1β % inhibition entry is listed as “+++ (compound exhibited 50-75% inhibition at 0.3 μM)”. Same read-out and setting: to `O=C(CC12CC3CC(CC(C3)C1)C2)Nc1ncnc2c1CCN(S(=O)(=O)c1cc(C(F)(F)F)ccc1Cl)C2` [Compound 181] belongs “++ (compound exhibited 25-50% inhibition at 0.3 μM)”; to `O=C(O)COc1ccccc1CN1CCc2c(ncnc2NC(=O)CC23CC4CC(CC(C4)C2)C3)C1` [Compound 141], “+ (compound exhibited 0-25% inhibition at 0.3 μM)”; to `COc1ccc(OC)c(CC(=O)N2CCc3c(ncnc3NC(=O)CC34CC5CC(CC(C5)C3)C4)C2)c1` [Compound 239], “++ (compound exhibited 25-50% inhibition at 0.3 μM)”. Turning to `O=C(CC12CC3CC(CC(C3)C1)C2)Nc1ncnc2c1CCN(C(=O)C1CCCCC1)C2` [Compound 244], the IL-1β % inhibition entry was “++ (compound exhibited 25-50% inhibition at 0.3 μM)”. Still for that read-out and setting: as for `O=C(c1ccc(Cl)cc1)N1CCc2c(ncnc2NC(=O)C23CC4CC(CC(C4)C2)C3)C1` [Compound 399], the entry is “+ (compound exhibited 0-25% inhibition at 0.3 μM)”; as for `O=C(CC12CC3CC(CC(C3)C1)C2)Nc1ncnc2c1CCN(C(=O)c1cccc(OC(F)(F)F)c1)C2` [Compound 269], “++ (compound exhibited 25-50% inhibition at 0.3 μM)”; as for `CC12CC3CC(C)(C1)CC(CC(=O)Nc1ncnc4c1CCN(S(=O)(=O)c1cccc(Cl)c1)C4)(C3)C2` [Compound 380], “+ (compound exhibited 0-25% inhibition at 0.3 μM)”.

In the case of `Cc1ccc(CN2CCc3c(ncnc3NC(=O)CC3CCCCCC3)C2)s1` [Compound 125], the IL-1β % inhibition result is reported as “+ (compound exhibited 0-25% inhibition at 0.3 μM)”. On the same count and under the same terms, as for `Cc1ccc(F)cc1S(=O)(=O)N1CCc2c(ncnc2NC(=O)CC23CC4CC(CC(C4)C2)C3)C1` [Compound 212], the entry is “+++ (compound exhibited 50-75% inhibition at 0.3 μM)”; as for `COc1ccccc1CCC(=O)Nc1ncnc2c1CCN(Cc1ccccn1)C2` [Compound 134], “+ (compound exhibited 0-25% inhibition at 0.3 μM)”; as for `O=C(NCC12CC3CC(CC(C3)C1)C2)c1ncnc2c1CCN(Cc1ccccc1F)C2` [Compound 139], “++ (compound exhibited 25-50% inhibition at 0.3 μM)”. Take `Cc1nn(C)c(Cl)c1S(=O)(=O)N1CCc2c(ncnc2NC(=O)CC23CC4CC(CC(C4)C2)C3)C1` [Compound 158]: the IL-1β % inhibition result is recorded as “+ (compound exhibited 0-25% inhibition at 0.3 μM)”. Still for that read-out and setting: as for `CC(C)Oc1ccc(CN2CCc3c(ncnc3NC(=O)CC34CC5CC(CC(C5)C3)C4)C2)cc1` [Compound 113], the entry is “+ (compound exhibited 0-25% inhibition at 0.3 μM)”; as for `CC12CC3(C)CC(C)(C1)CC(CC(=O)Nc1ncnc4c1CCN(Cc1ccccc1)C4)(C2)C3` [Compound 344], “+ (compound exhibited 0-25% inhibition at 0.3 μM)”; as for `O=C(CC12CC3CC(CC(C3)C1)C2)Nc1ncnc2c1CCN(Cc1cccc(Cl)c1)C2` [Compound 34], “+ (compound exhibited 0-25% inhibition at 0.3 μM)”. Take `COc1ccccc1CCC(=O)Nc1ncnc2c1CCN(CC1CCCCC1)C2` [Compound 136]: the IL-1β % inhibition result is on record as “+ (compound exhibited 0-25% inhibition at 0.3 μM)”. For the compound `O=C(CC12CC3CC(CC(C3)C1)C2)Nc1ncnc2c1CCN(C(=O)c1c(F)cccc1Cl)C2` [Compound 272], the IL-1β % inhibition entry is on record as “++++ (compound exhibited 75% or greater inhibition at 0.3 μM)”. For the compound `O=C(CC12CC3CC(CC(C3)C1)C2)Nc1ncnc2c1CCN(Cc1ccc(OCCO)cc1)C2` [Compound 99], the IL-1β % inhibition entry was “+ (compound exhibited 0-25% inhibition at 0.3 μM)”. Take `Cc1ccccc1CN1CCc2c(ncnc2NC(=O)C(C)(C)C23CC4CC(CC(C4)C2)C3)C1` [Compound 349]: the IL-1β % inhibition result is on record as “+ (compound exhibited 0-25% inhibition at 0.3 μM)”.

As to `O=C(CC12CC3CC(CC(C3)C1)C2)Nc1ncnc2c1CCN(S(=O)(=O)c1ccccc1Cl)C2` [Compound 192], the IL-1β % inhibition entry was “+++ (compound exhibited 50-75% inhibition at 0.3 μM)”.

On to `COc1ccccc1CCC(=O)Nc1ncnc2c1CCN(Cc1ccccc1)C2` [Compound 24], for which the IL-1β % inhibition result is “+ (compound exhibited 0-25% inhibition at 0.3 μM)”.

For `O=C(CC12CC3CC(CC(C3)C1)C2)Nc1ncnc2c1CCN(S(=O)(=O)c1ccc(OC(F)F)cc1)C2` [Compound 190], the IL-1β % inhibition entry is on record as “+++ (compound exhibited 50-75% inhibition at 0.3 μM)”.

With `COc1ccc(C(=O)N2CCc3c(ncnc3NC(=O)CC34CC5CC(CC(C5)C3)C4)C2)cc1F` [Compound 310], the IL-1β % inhibition entry is reported as “+++ (compound exhibited 50-75% inhibition at 0.3 μM)”. As to `O=C(NCC12CC3CC(CC(C3)C1)C2)c1ncnc2c1CCN(Cc1ccc3c(c1)OCO3)C2` [Compound 340], the IL-1β % inhibition entry is “+++ (compound exhibited 50-75% inhibition at 0.3 μM)”. The same measure, in the same setting: as for `O=C(CC1CCCCCC1)Nc1ncnc2c1CCN(CC1CCCCC1)C2` [Compound 127], the entry is “+ (compound exhibited 0-25% inhibition at 0.3 μM)”; as for `COc1ccccc1CCC(=O)Nc1ncnc2c1CCNC2` [Compound 25], “+ (compound exhibited 0-25% inhibition at 0.3 μM)”; as for `Cc1ccccc1CN1CCc2c(ncnc2NC(=O)CC23CC4CC(C)(CC(C)(C4)C2)C3)C1` [Compound 372], “+++ (compound exhibited 50-75% inhibition at 0.3 μM)”.

The same assay, now with this note: at 0.3 μM; THP-1 cells, BzATP-stimulated.
With `O=C(Nc1ncnc2c1CCN(CC1CCCC1)C2)C12CC3CC(CC(C3)C1)C2` [Compound 619], the IL-1β % inhibition result was “+ (compound exhibited 0-25% inhibition at 0.3 μM)”. `O=C(Nc1ncnc2c1CCN(S(=O)(=O)c1cc(F)ccc1F)C2)C12CC3CC(CC(C3)C1)C2` [Compound 537]: the IL-1β % inhibition entry is given as “++ (compound exhibited 25-50% inhibition at 0.3 μM)”. For `O=C(c1cc(F)cc(C(F)(F)F)c1)N1CCc2c(ncnc2NC(=O)C23CC4CC(CC(C4)C2)C3)C1` [Compound 439], the IL-1β % inhibition entry was “++ (compound exhibited 25-50% inhibition at 0.3 μM)”. Regarding `COc1ccccc1CN1CCc2c(ncnc2NC(=O)C23CC4CC(CC(C4)C2)C3)C1` [Compound 615], the IL-1β % inhibition entry is on record as “+++ (compound exhibited 50-75% inhibition at 0.3 μM)”. The same measure, in the same setting: as for `CCCS(=O)(=O)N1CCc2c(ncnc2NC(=O)C23CC4CC(CC(C4)C2)C3)C1` [Compound 485], the entry is “+ (compound exhibited 0-25% inhibition at 0.3 μM)”; as for `O=C(Nc1ncnc2c1CCN(CC1CC1)C2)C12CC3CC(CC(C3)C1)C2` [Compound 557], “+ (compound exhibited 0-25% inhibition at 0.3 μM)”; as for `Cc1ccc(CN2CCc3c(ncnc3NC(=O)C34CC5CC(CC(C5)C3)C4)C2)cc1` [Compound 602], “++ (compound exhibited 25-50% inhibition at 0.3 μM)”.

For `CS(=O)(=O)N1CCc2c(ncnc2NC(=O)C23CC4CC(CC(C4)C2)C3)C1` [Compound 480], the IL-1β % inhibition entry is on record as “+ (compound exhibited 0-25% inhibition at 0.3 μM)”. On to `N#Cc1cc(CN2CCc3c(ncnc3NC(=O)C34CC5CC(CC(C5)C3)C4)C2)ccc1F` [Compound 595], for which the IL-1β % inhibition result was “+ (compound exhibited 0-25% inhibition at 0.3 μM)”.

With `O=C(c1cc(C(F)(F)F)ccc1Cl)N1CCc2c(ncnc2NC(=O)C23CC4CC(CC(C4)C2)C3)C1` [Compound 443], the IL-1β % inhibition result is “++ (compound exhibited 25-50% inhibition at 0.3 μM)”.

Regarding `O=C(Nc1ncnc2c1CCN(S(=O)(=O)Cc1cc(C(F)(F)F)cc(C(F)(F)F)c1)C2)C12CC3CC(CC(C3)C1)C2` [Compound 515], the IL-1β % inhibition entry was “+++ (compound exhibited 50-75% inhibition at 0.3 μM)”. With `O=C(Nc1ncnc2c1CCN(S(=O)(=O)c1cc(Cl)ccc1Cl)C2)C12CC3CC(CC(C3)C1)C2` [Compound 538], the IL-1β % inhibition result is listed as “++ (compound exhibited 25-50% inhibition at 0.3 μM)”. On to `CC(CCN1CCc2c(ncnc2NC(=O)C23CC4CC(CC(C4)C2)C3)C1)CC(C)(C)C` (centres unmarked) [Compound 552], for which the IL-1β % inhibition result is on record as “++++ (compound exhibited 75% or greater inhibition at 0.3 μM)”. Still for that read-out and setting: to `CCCN1CCc2c(ncnc2NC(=O)C23CC4CC(CC(C4)C2)C3)C1` [Compound 555] belongs “+ (compound exhibited 0-25% inhibition at 0.3 μM)”; to `O=C(Nc1ncnc2c1CCN(Cc1ccc(C(F)(F)F)cc1F)C2)C12CC3CC(CC(C3)C1)C2` [Compound 612], “++++ (compound exhibited 75% or greater inhibition at 0.3 μM)”. Regarding `O=C(Cc1ccc(Cl)cc1)N1CCc2c(ncnc2NC(=O)C23CC4CC(CC(C4)C2)C3)C1` [Compound 437], the IL-1β % inhibition entry is given as “+ (compound exhibited 0-25% inhibition at 0.3 μM)”. On the same count and under the same terms, as for `N#Cc1ccc(S(=O)(=O)N2CCc3c(ncnc3NC(=O)C34CC5CC(CC(C5)C3)C4)C2)c(Cl)c1` [Compound 500], the entry is “+++ (compound exhibited 50-75% inhibition at 0.3 μM)”; as for `O=C(Nc1ncnc2c1CCN(S(=O)(=O)c1ccc(Oc3ccccn3)cc1)C2)C12CC3CC(CC(C3)C1)C2` [Compound 506], “++++ (compound exhibited 75% or greater inhibition at 0.3 μM)”.
